Measured values: publication PMC11643077, “Synthesis of 1,2,4-Oxadiazin-5(6H)-One Derivatives and Their Biological Investigation as Monoamine Oxidase Inhibitors” (Molecules, 2024)

How the values were obtained:
MAO-A = target: T1, MAO-A (Homo sapiens, UniProt P21397); assay: MAO-A inhibition, recombinant human enzyme, kynuramine substrate, fluorometric end-point; format: biochemical; settings: mean ± SD of triplicate, racemic mixtures, NI = no inhibition at 100 µM
T1 construct: purchased Merck
T1 sequence (P21397 1-527): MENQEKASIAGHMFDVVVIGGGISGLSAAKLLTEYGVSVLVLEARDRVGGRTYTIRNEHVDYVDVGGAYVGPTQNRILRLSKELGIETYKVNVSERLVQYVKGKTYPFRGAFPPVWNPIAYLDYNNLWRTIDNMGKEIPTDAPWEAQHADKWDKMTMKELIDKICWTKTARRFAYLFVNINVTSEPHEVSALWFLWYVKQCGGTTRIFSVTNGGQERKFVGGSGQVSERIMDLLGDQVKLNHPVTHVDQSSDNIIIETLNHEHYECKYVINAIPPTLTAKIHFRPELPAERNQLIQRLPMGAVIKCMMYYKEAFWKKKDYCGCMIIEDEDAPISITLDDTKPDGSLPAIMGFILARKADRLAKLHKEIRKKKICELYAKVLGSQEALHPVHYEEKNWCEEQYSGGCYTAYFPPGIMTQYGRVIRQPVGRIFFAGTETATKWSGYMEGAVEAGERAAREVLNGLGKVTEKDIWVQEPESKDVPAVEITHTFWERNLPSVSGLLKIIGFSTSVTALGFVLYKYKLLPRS
Procedure: (§1) The in vitro inhibition studies were carried out according to the published procedure, and the inhibition potencies were expressed as the IC50 values (Figure 2). […] A variety of C3 substituents were explored in this study, which included the phenyl, benzyl and 5-methylthiophen-2-yl moieties, while different substituents on the phenyl (e.g., CH3, OCH3, Cl, Br, F, CF3, OCF3, NO2, PhO) were considered.
(§2) The inhibition potencies of the 1,2,4-oxadiazin-5(6H)-one derivatives were determined using commercially available recombinant human MAO-A and MAO-B (Merck) according to the published procedure. Stock solutions of all compounds were prepared in DMSO and added to the enzyme reactions to yield a final concentration of 4% DMSO. […] Kynuramine was used as enzyme substrate for both MAO isoforms and was oxidized to ultimately form 4-hydroxyquinoline, which is a fluorescent metabolite. The concentrations of 4-hydroxyquinoline in the reactions were measured at end-point by fluorescence spectrometry (λex = 310 nm; λem = 400 nm). Using this approach, the rates of kynuramine oxidation by MAO were measured in the presence of different concentrations of the test inhibitors (0.003–100 µM) as well as in the absence of inhibitor. […] IC50 values were estimated from these plots and were reported as the mean ± SD of triplicate determinations.

MAO-B = target: T2, MAO-B (Homo sapiens, UniProt P27338); assay: MAO-B inhibition, recombinant human enzyme, kynuramine substrate, fluorometric end-point; format: biochemical; settings: mean ± SD of triplicate, racemic mixtures, NI = no inhibition at 100 µM
T2 construct: purchased Merck
T2 sequence (P27338 1-520): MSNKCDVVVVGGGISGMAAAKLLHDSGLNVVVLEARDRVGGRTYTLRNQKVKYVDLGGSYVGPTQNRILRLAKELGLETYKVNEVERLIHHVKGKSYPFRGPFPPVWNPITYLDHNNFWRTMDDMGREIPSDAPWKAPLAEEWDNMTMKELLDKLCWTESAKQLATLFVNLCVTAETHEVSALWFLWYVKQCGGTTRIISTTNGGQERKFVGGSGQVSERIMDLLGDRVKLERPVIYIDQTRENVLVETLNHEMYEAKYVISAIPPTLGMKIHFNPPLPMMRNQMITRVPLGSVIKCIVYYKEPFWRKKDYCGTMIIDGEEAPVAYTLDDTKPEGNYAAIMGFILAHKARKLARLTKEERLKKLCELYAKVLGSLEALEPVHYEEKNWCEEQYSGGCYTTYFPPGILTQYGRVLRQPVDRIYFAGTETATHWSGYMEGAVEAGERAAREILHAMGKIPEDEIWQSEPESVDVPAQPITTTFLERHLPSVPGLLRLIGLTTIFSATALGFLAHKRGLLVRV
Procedure: as §1, §2

| melting point [°C] | IC50 (MAO-A) [µM] | IC50 (MAO-B) [µM] | Compound |
| --- | --- | --- | --- |
| 248 to 250 | 17.3 ± 0.594 | 24.4 ± 2.48 | O=C1CON=C(c2ccc([N+](=O)[O-])cc2)N1 [Compound 3c, 3-(4-Nitrophenyl)-4H-1,2,4-oxadiazin-5(6H)-one] |
|  | 67 ± 0.007 | 24.5 ± 0.198 | Cc1ccc(C2=NOC(C)C(=O)N2)cc1 (stereo not shown) [Compound 4a, 6-Methyl-3-(4-methylphenyl)-4H-1,2,4-oxadiazin-5(6H)-one] |
|  | 37.4 ± 4.18 | 27.1 ± 3.37 | CC1ON=C(c2ccc(Br)cc2)NC1=O (stereo not shown) [Compound 4b, 3-(4-Bromophenyl)-6-methyl-4H-1,2,4-oxadiazin-5(6H)-one] |
| 247 to 249 | 58.5 ± 4.17 | 14.6 ± 0.092 | CC1ON=C(c2ccc([N+](=O)[O-])cc2)NC1=O (stereo not shown) [Compound 4c, 6-Methyl-3-(4-nitrophenyl)-4H-1,2,4-oxadiazin-5(6H)-one] |
|  | 51.2 ± 15.1 | 20 ± 0.643 | COc1ccc(C2=NOC(C)C(=O)N2)cc1 (stereo not shown) [Compound 4e, 3-(4-Methoxyphenyl)-6-methyl-4H-1,2,4-oxadiazin-5(6H)-one] |
|  | > 100 | 4.28 ± 0.318 | CCC1ON=C(c2ccc(C)cc2)NC1=O (stereo not shown) [Compound 5a, 6-Ethyl-3-(4-methylphenyl)-4H-1,2,4-oxadiazin-5(6H)-one] |
|  | 35.4 ± 1.54 | 5.11 ± 0.308 | CCC1ON=C(c2ccc(Br)cc2)NC1=O (stereo not shown) [Compound 5b, 3-(4-Bromophenyl)-6-ethyl-4H-1,2,4-oxadiazin-5(6H)-one] |
| 177 to 179 | 57.9 ± 9.84 | 21 ± 4.09 | CCC1ON=C(c2ccc([N+](=O)[O-])cc2)NC1=O (stereo not shown) [Compound 5c, 6-Ethyl-3-(4-nitrophenyl)-4H-1,2,4-oxadiazin-5(6H)-one] |
| 139 to 141 | 44.1 ± 6.05 | 6.22 ± 0.596 | CCC1ON=C(c2ccc(OC)cc2)NC1=O (stereo not shown) [Compound 5e, 6-Ethyl-3-(4-methoxyphenyl)-4H-1,2,4-oxadiazin-5(6H)-one] |
| 153 to 155 | 93 ± 3.23 | 30.7 ± 2.02 | CCC1ON=C(c2ccc(F)cc2)NC1=O (stereo not shown) [Compound 5h, 6-Ethyl-3-(4-fluorophenyl)-4H-1,2,4-oxadiazin-5(6H)-one] |
|  | > 100 | 52.3 ± 12.7 | COC(=O)CC1ON=C(c2ccc([N+](=O)[O-])cc2)NC1=O (stereo not shown) [Compound 6c] |
|  | > 100 |  | Cc1ccc(C2=NOC(CC(=O)O)C(=O)N2)cc1 (stereo not shown) [Compound 8a] |

Second part, the molecule before the results:

| Compound | melting point [°C] | IC50 (MAO-A) [µM] | IC50 (MAO-B) [µM] |
| --- | --- | --- | --- |
| Cc1ccc(C2=NOCC(=O)N2)cc1 [Compound 3a, 3-(4-Methylphenyl)-4H-1,2,4-oxadiazin-5(6H)-one] | 140 to 141 | 36.8 ± 1.83 | 37.2 ± 0.071 |
| O=C1CON=C(c2ccc(Br)cc2)N1 [Compound 3b, 3-(4-Bromophenyl)-4H-1,2,4-oxadiazin-5(6H)-one] |  | 14.2 ± 0.94 | 13.6 ± 6.63 |
| Cc1ccc(C2=NOCC(=O)N2)s1 [Compound 3d, 3-(5-Methylthiophen-2-yl)-4H-1,2,4-oxadiazin-5(6H)-one] | 216 to 218 | 34.6 ± 5.47 | 16.6 ± 1.67 |
| COc1ccc(C2=NOCC(=O)N2)cc1 [Compound 3e, 3-(4-Methoxyphenyl)-4H-1,2,4-oxadiazin-5(6H)-one] | 188 to 190 | 27.1 ± 3.98 | 37.6 ± 9.47 |
| Cc1ccc(C2=NOC(C)C(=O)N2)s1 (stereo not shown) [Compound 4d, 6-Methyl-3-(5-methylthiophen-2-yl)-4H-1,2,4-oxadiazin-5(6H)-one] | 167 to 169 | 46.2 ± 9.22 | 22.3 ± 0.94 |
| CCC1ON=C(c2ccc(C)s2)NC1=O (stereo not shown) [Compound 5d, 6-Ethyl-3-(5-methylthiophen-2-yl)-4H-1,2,4-oxadiazin-5(6H)-one] | 151 to 153 | 58.1 ± 5.28 | 6.14 ± 0.137 |
| CCC1ON=C(c2ccccc2)NC1=O (stereo not shown) [Compound 5g, 6-Ethyl-3-phenyl-4H-1,2,4-oxadiazin-5(6H)-one] |  | > 100 | > 100 |
| CCC1ON=C(Cc2ccccc2)NC1=O (stereo not shown) [Compound 5i, 3-Benzyl-6-ethyl-4H-1,2,4-oxadiazin-5(6H)-one] | 97 to 99 | > 100 | > 100 |
| COC(=O)CC1ON=C(c2ccccc2)NC1=O (stereo not shown) [Compound 6a] |  | > 100 | > 100 |
| COC(=O)CC1ON=C(c2ccccn2)NC1=O (stereo not shown) [Compound 6b] |  | 34.2 ± 6.15 | 23.6 ± 1.11 |
| COC(=O)CC1ON=C(c2ccc(C)s2)NC1=O (stereo not shown) [Compound 6d] |  | 40.7 ± 8.83 | 33.9 ± 1.44 |
| COC(=O)CC1ON=C(c2ccncc2)NC1=O (stereo not shown) [Compound 6e] |  | > 100 | > 100 |
| COC(=O)CC1ON=C(c2ccc(C(F)(F)F)cc2)NC1=O (stereo not shown) [Compound 6f] |  | > 100 | 22.9 ± 5.27 |
| Cc1ccc(C2=NOC(Cc3nc(-c4ccc(C)cc4)no3)C(=O)N2)cc1 (stereo not shown) [Compound 7a] |  | 54.3 ± 14.3 |  |
| O=C1NC(c2ccc(F)cc2)=NOC1Cc1nc(-c2ccc(F)cc2)no1 (stereo not shown) [Compound 7b] |  | > 100 | 14.3 ± 3.27 |
| O=C1NC(c2ccc([N+](=O)[O-])cc2)=NOC1Cc1nc(-c2ccc([N+](=O)[O-])cc2)no1 (stereo not shown) [Compound 7c] |  | 12.9 ± 0.014 | 0.371 ± 0.037 |
| O=C1NC(c2ccc(C(F)(F)F)cc2)=NOC1Cc1nc(-c2ccc(C(F)(F)F)cc2)no1 (stereo not shown) [Compound 7d] |  | > 100 | 46.3 ± 17.8 |
| O=C(O)CC1ON=C(c2ccc(Oc3ccccc3)cc2)NC1=O (stereo not shown) [Compound 8b] |  | 12.7 ± 1.34 | > 100 |
| COc1ccc(C2=NOC(CC(=O)O)C(=O)N2)cc1 (stereo not shown) [Compound 8c] |  | > 100 | > 100 |
| O=C(O)CC1ON=C(c2ccc(C(F)(F)F)cc2)NC1=O (stereo not shown) [Compound 8d] |  | > 100 | > 100 |
| O=C(O)CC1ON=C(c2cc(Cl)cc(Cl)c2)NC1=O (stereo not shown) [Compound 8e] |  | > 100 | 62.2 ± 15.7 |
| O=C(O)CC1ON=C(c2cccc(Cl)c2)NC1=O (stereo not shown) [Compound 8f, 2-(3-(3-Chlorophenyl)-5-oxo-5,6-dihydro-4H-1,2,4-oxadiazin-6-yl)acetic acid] | 211 to 212 | > 100 | > 100 |
| O=C(O)CC1ON=C(c2ccc(OC(F)(F)F)cc2)NC1=O (stereo not shown) [Compound 8g, 2-(5-Oxo-3-(4-(trifluoromethoxy)phenyl)-5,6-dihydro-4H-1,2,4-oxadiazin-6-yl)acetic acid] | 208 to 211 | > 100 | > 100 |
| COc1ccc2c(c1)[nH]c1c(C)nccc12 [Harmine, reference compound] |  |  | > 100 |
